From patent US20140199714A1, “METHOD FOR DETECTING CANCER CELLS METASTASIZING INTO SENTINEL LYMPH NODE” (SHINSHU UNIVERSITY, priority 2008, published 2014)

How the values were obtained:
[1] = test system: attachment of carcinoma cells to human LECs; experiment: In vitro human LEC attachment assay (ATP or MDA-MB-231 supernatant stimulation); type: cell-based; conditions: p<0.01, n=5
Experimental: The human LECs were plated to form a monolayer on type I collagen-coated 35 mm plates and incubated to confluence at 37° C. in 5% O2, 5% CO2, and 90% N2. The LECs were kept in serum-starved medium of EBM-2 with 3% FBS. Selected plates were treated with 10^−7M ATP or the supernatant of culture medium of MDA-MB-231 cells for 48 hrs. In some experiments, 10^−6M suramin was simultaneously added to the plates during 48 hrs. treatment with 10^−7M ATP or the culture medium supernatant of MDA-MB-231 cells.
In some experiments, the plates were also treated with anti-human-ICAM-1 antibody (available from R&D Systems, US) for 30 min after 48 hrs. treatment with the culture medium supernatant of MDA-MB-231 or 10^−7M ATP. Breast carcinoma cells stained with PKH26 fluorescent dye (available from SIGMA, US) were then plated at 5×10^4 cells per plate and incubated for 30 min. at 37° C. Unbound cells were removed by aspiration and the plates washed with DMEM/F12 three times. Attachment was quantitated by counting cells under ×100 magnification using a microscope (available from Leica, Switzerland).

[2] = test system: ICAM-1 on human LECs; experiment: Immunohistochemical expression of ICAM-1 on cultured human LECs; type: cell-based
[3] = test system: prostate cancer cells; conditions: via P2 receptors; cited from earlier work
[4] = test system: ICAM-1 on human LECs; experiment: Immunohistochemical expression of ICAM-1 on cultured human LECs; type: cell-based; conditions: 48 hrs. simultaneous treatment with 10^−7 or 10^−6M antagonist; n=5
Experimental: (§1) Using an indirect immunohistochemical technique, the inventors examined the effects of the supernatants of culture medium of two kinds of carcinoma cells, MDA-MB-231 and MCF-7, on the expression of adhesion molecules such as E-selectin, P-selectin, vascular cell adhesion molecule (VCAM)-1, and intercellular adhesion molecule (ICAM)-1 on the human LECs. The carcinoma cells were plated in DMEM/F12 with 10% FBS, which was replaced the following day with DMEM/F12 with 3% FBS, and then collected after overnight culture. The collected solution was centrifuged at 2,000 rpm for 5 min. at 4° C. To examine the effects of the supernatants on the expression of the adhesion molecules on the human LECs, 1 mL of each collected solution was added to starvation culture medium, EBM-2 with 3% FBS of the human LECs, and then stimulated for 48 hrs. on the cells. In some experiments, the supernatant solutions at different concentrations (1/100 or 1/10,000 dilution) were constructed with appropriate volumes of DMEM/F12 with 3% FBS.
Indirect immunohistochemical studies were performed on the cultured LECs seeded or glass slides coated with type I collagen, and then the cells were fixed with 3.3% formalin in phosphate-buffered saline solution (PBS), for 20 min. at room temperature. […]
In some experiments, the effects of 10 ng/mL CCL2 on the immunohistochemical expression of ICAM-1 on the human LECs were also evaluated using the same procedure as that mentioned above after overnight neutralization of CCL2 in the starvation culture medium with a CCL2 specific antibody (1.0 μg/mL). […]
To quantitatively examine the immunohistochemical data concerning the expression of ICAM-1 on the human LECs, the high-resolution digital microphotographs were processed using the SCION IMAGE analysis program. […]

[5] = test system: F-actin in LECs derived from human collecting lymph vessel; experiment: Staining of cytoskeletal protein F-actin in human LECs; type: cell-based; conditions: 10 ng/mL TNF-α; 1 ng/mL and 10 ng/mL IL-1β; 2 hrs. at 37° C.; vs negative control
Experimental: LECs derived from human collecting lymph vessel, which were transplanted into a culture system, were plated on glass slide, and repeatedly subcultured to confluence. Stimulating factors of 10 ng/mL of tumor necrosis factor-α (TNF-α) of Catalog No. T-0157 (available from SIGMA, US), 1 ng/mL and 10 ng/mL of interleukin-1β (IL-1β) of Catalog No. 200-01B (available from PeproTech, US) were respectively dissolved in EBM-2 containing 3% FBS of Catalog No. CC-3156 (available from Sankyo Junyaku Co., Ltd., Japan) and added onto the cells, and then the cells were incubated for 2 hrs. at 37° C. They were fixed with 3.7% formalin. They were washed with PBS solution, and then still stood in PBS solution containing 0.1% TRITON X-100 of Catalog No. X-100 (available from SIGMA, US) for 5 min. Additionally they were washed with PBS solution, and then phalloidin-FITC antibody of Catalog No. P-5282 (available from SIGMA, US) diluted 500 times with PBS solution containing 0.1% BSA was added thereto. They were still stood for 2 hrs. at room temperature. After they were washed with PBS solution, and mounted in MOBI GLOW MOUNTING MEDIUM. Also negative control was similarly prepared except for using no stimulating factor. […] The LECs of the negative control without the stimulating factor indicate obscure green fluorescence, and there were few expression of F-actin.

[6] = test system: E-selectin on human LECs; experiment: Immunohistochemical expression of E-selectin on cultured human LECs; type: cell-based; conditions: 18 hrs.-stimulation with 10 ng/mL TNF-α or 100 ng/mL LPS
Experimental: as §1
(§2) Indirect immunohistochemical studies were performed on the cultured LECs seeded or glass slides coated with type I collagen, and then the cells were fixed with 3.3% formalin in phosphate-buffered saline solution (PBS), for 20 min. at room temperature. The cells were washed three times with PBS, and then incubated overnight at 4° C. with primary polyclonal human antisera to E-selectin/CD62E (dilution 10 μg/mL, available from R&D Systems, US), P-selectin/CD62P (dilution 10 μg/mL, available from R&D Systems, US), VCAM-1/CD106 (dilution 10 μg/mL, available from R&D Systems, US), and ICAM-1/CD54 (dilution 10 μg/mL, available from R&D Systems, US).
(§3) Before primary staining, the cultured cells were permeabilized with 0.1% TRITON-X. After washing three times in PBS, the cells were incubated for 1 hr. at room temperature with 1:100 diluted ALEXA FLUOR 488 donkey anti-mouse IgG (available from Invitrogen, US). The nuclei of cultured cells were counter-stained and mounted with PROLONG GOLD antifade reagent with 4′-6-diamidine-2-phenylindole (DAPI) (available from Molecular Probes, US), examined by a fluorescent microscope (Leica, Switzerland), and photographed.
(§4) Immunohistochemistry was performed on the cultured human LECs or the fresh-frozen SLNs isolated from the breast cancer patients. In brief, the cultured LECs were fixed with 10% formalin in the phosphate-buffered saline solution (PBS) at room temperature. The cells were incubated for 4 hrs. at room temperature with primary polyclonal human antisera platelet-endothelial cell adhesion molecule (PECAM)-1 (dilution 1:100, available from BD Biosciences, US), lymphatic vessel endothelial hyaluronan receptor (LYVE)-1 (dilution 1:50, available from RELIATech, Germany), PROX-1 (dilution 1:50, available from AngioBio, US), podoplanin (dilution 1:50, available from AngioBio, US), vascular endothelium growth factor receptor 3 (VEGF R3) (dilution 1:50, available from Santa Cruz, US), E-selectin/CD62E (dilution 1:50, available from R&D systems, US), P-selectin/CD62P (dilution 1:50, available from R&D systems, US), vascular cell adhesion molecule (VCAM)-1/CD106 (dilution 1:50, available from R&D systems, US), and intercellular adhesion molecule (ICAM)-1/CD54 (dilution 1:50, available from R&D systems, US). Before the staining, permeabilization of the cultured cells with 0.1% TRITON-X was performed. Then, the cells were stained using the following antibodies: ALEXA FLUOR 488 chicken anti-rabbit IgG or ALEXA FLUOR 488 donkey anti-mouse IgG (available from Invitrogen, US). The nuclei of the cultured cells were counter-stained and mounted with ProLong Gold antifade reagent with 4′-6-diamidine-2-phenylindole (DAPI) (available from Molecular Probes, US). The cultured cells were examined by a fluorescent microscope (available from Leica, Germany) and photographed. […]

[7] = test system: P-selectin on human LECs; experiment: Immunohistochemical expression of P-selectin on cultured human LECs; type: cell-based; conditions: 18 hrs.-stimulation with 10 ng/mL TNF-α or 100 ng/mL LPS
Experimental: as §1, §2
Before primary staining, the cultured cells were permeabilized with 0.1% TRITON-X. After washing three times in PBS, the cells were incubated for 1 hr. at room temperature with 1:100 diluted ALEXA FLUOR 488 donkey anti-mouse IgG (available from Invitrogen, US). […]

[8] = test system: VCAM-1 on human LECs; experiment: Immunohistochemical expression of VCAM-1 on cultured human LECs; type: cell-based; conditions: 18 hrs.-stimulation with 10 ng/mL TNF-α or 100 ng/mL LPS
Experimental: as §1, §2, §3, §4

Nc1ncnc2c1ncn2[C@@H]1O[C@H](COP(=O)(O)OP(=O)(O)OP(=O)(O)O)[C@@H](O)[C@H]1O [ATP]
in vitro attachment of carcinoma cells to human LECs ([1]; 48 hrs. stimulation (10^−7M ATP or MDA-MB-231 supernatant) vs DMEM/F12 Ham negative control): significant increase | expression of ICAM-1 on human LECs ([2]; 10^−8 or 10^−7M ATP for 48 hrs.): marked expression | inhibition of growth of prostate cancer cells in vitro [3]: up to 90%

Cc1ccc(C(=O)Nc2ccc(S(=O)(=O)O)c3cc(S(=O)(=O)O)cc(S(=O)(=O)O)c23)cc1NC(=O)c1cccc(NC(=O)Nc2cccc(C(=O)Nc3cc(C(=O)Nc4ccc(S(=O)(=O)O)c5cc(S(=O)(=O)O)cc(S(=O)(=O)O)c45)ccc3C)c2)c1 [suramin]
effect on MDA-MB-231 supernatant-mediated expression of ICAM-1 on human LECs [4]: significant reduction | effect on MDA-MB-231 supernatant-mediated increase of attachment of carcinoma cells to human LECs ([1]; 48 hrs. simultaneous treatment with 10^−6M suramin): significant reduction | effect on ATP-mediated increased attachment of carcinoma cells to LECs ([1]; simultaneous treatment with 10^−6M suramin, 10^−7M ATP 48 hrs.): significantly reduced | effect on ATP-mediated expression of ICAM-1 on LECs ([2]; simultaneous treatment with 10^−7M or 10^−6M suramin, 10^−7M ATP, p<0.01, n=5): significant reduction

IL-1β: interleukin-1β, stimulating factor
expression of F-actin (phalloidin-FITC fluorescence) [5]: increase of expression of F-actin

TNF-α
expression of E-selectin on human LECs (positive controls) [6]: marked expression | expression of P-selectin on human LECs (positive controls) [7]: marked expression | expression of VCAM-1 on human LECs (positive controls) [8]: marked expression | expression of F-actin (phalloidin-FITC fluorescence) [5]: increase of expression of F-actin | expression of ICAM-1 on human LECs (positive controls) ([2]; 18 hrs.-stimulation with 10 ng/mL TNF-α or 100 ng/mL LPS): marked expression
